Literature values as cited in PubChem BioAssay AID1259410 (Chemical Carcinogenesis Research Information System (CCRIS), 2018).

Test system: rodent tumor promotion studies, tumor incidence
Experiment: CCRIS tumor promotion studies
[1] = Carcinogen: 7,12-DIMETHYLBENZ(A)ANTHRACENE, Doses [Carcinogen]: TOP, Route [Carcinogen]: DERMAL, Route [Promoter]: DERMAL, Species: MOUSE, Strain/Sex: FEMALE

For `COc1ccc(O)cc1`, the outcome (Carcinogen: DIETHYLNITROSAMINE, 55-18-5, N-METHYLNITROSOUREA, 684-93-5, 1,2-DIMETHYLHYDRAZINE, 540-73-8, N-BUTYL-N-(4-HYDROXYBUTYL)N, Carcinogen: DIETHYLNITROSAMINE, 55-18-5, N-METHYLNITROSOUREA, 684-93-5, 1,2-DIMETHYLHYDRAZINE, 540-73-8, N-BUTYL-N-(4-HYDROXYBUTYL)N, Doses [Carcinogen]: 100 MG/KG BW DEN ONCE FOLLOWED BY 20 MG/KG BW MNU 2/WK FOR 2 WK THEN 40 MG/KG BW DMH 2/WK FOR THE NEXT 2 WK, 0.05% BBN I, Doses [Promoter]: 0, 0.4% IN DIET FOR 24 WK BEGINNING POST CARCINOGEN TREATMENT (STUDY DURATION: 28 WK), Route [Carcinogen]: INTRAPERITONEAL, INTRAPERITONEAL, SUBCUTANEOUS, ORAL, Route [Carcinogen]: INTRAPERITONEAL, INTRAPERITONEAL, SUBCUTANEOUS, ORAL, Route [Promoter]: ORAL, Species: RAT, Strain/Sex: F344/MALE) is listed as “forestomach: papilloma”.
For `C[C@@]12C(=O)OC(=O)[C@]1(C)[C@H]1CC[C@@H]2O1`, the outcome [1] is given as “integumentary system (skin)”.
For `Oc1ccc(Cl)cc1`, the outcome [1] is listed as “integumentary system (skin)”.
For `Cc1c2ccccc2c(C)c2c1ccc1ccccc12`, the outcome (Carcinogen: Diethylstilbestrol, 56-53-1, Doses [Carcinogen]: 0, 0.1, 1, 10, 100 ug in 0.05 ml sesame oil once at birth, Doses [Carcinogen]: 0, 0.1, 1, 10, 100 ug in 0.05 ml sesame oil once at birth, Doses [Promoter]: 10 mg in 1 ml sesame oil once by gastric intubation at 50 days of age, study duration 175 or 300 days of age, Route [Carcinogen]: Subcutaneous, Route [Promoter]: Oral, Species: Rat, Strain/Sex: Sprague-Dawley/Female (22/control group; 15; 21; 13; 16/experimental group)) is given as “mammary carcinomas: 50, 54, 91, 39, 19% at 175 days and 77, 87, 100, 85, 75% at”.
For `O=[N+]([O-])c1ccc(F)c([N+](=O)[O-])c1`, the outcome (Carcinogen: 7,12-DIMETHYLBENZ[A]ANTHRACENE, 57-97-6, Doses [Carcinogen]: 2.5 UG IN 200 µL ACETONE ONCE, Doses [Promoter]: 0, 0.1, 0.2% IN ACETONE/OLIVE OIL (4:1) 2/WK FOR 52 WK BEGINNING 2 WK POST CARCINOGEN DOSE (STUDY DURATION: 54 WK), Doses [Promoter]: 0, 0.1, 0.2% IN ACETONE/OLIVE OIL (4:1) 2/WK FOR 52 WK BEGINNING 2 WK POST CARCINOGEN DOSE (STUDY DURATION: 54 WK), Route [Carcinogen]: DERMAL, Route [Promoter]: DERMAL, Species: MOUSE, Strain/Sex: SENCAR/FEMALE) is given as “skin: tumor” and the outcome (Carcinogen: 7,12-DIMETHYLBENZ[A]ANTHRACENE, 57-97-6, Doses [Carcinogen]: 100 NMOL ONCE, Doses [Promoter]: 0, 0.1, 0.2% 2/WK FOR 27 WK BEGINNING 2 WK POST CARCINOGEN DOSE (STUDY DURATION: 59 WK), Doses [Promoter]: 0, 0.1, 0.2% 2/WK FOR 27 WK BEGINNING 2 WK POST CARCINOGEN DOSE (STUDY DURATION: 59 WK), Route [Carcinogen]: DERMAL, Route [Promoter]: DERMAL, Species: MOUSE, Strain/Sex: SENCAR/FEMALE) is given as “skin: tumor”.
In the case of `Cn1c(N)nc2ncc(-c3ccccc3)cc21`, the outcome (Carcinogen: 3,2'-DIMETHYL-4-AMINOBIPHENYL, 13394-86-0, Doses [Carcinogen]: 50 MG/KG BW ONCE/2 WK FOR FIRST 20 WK (STUDY DURATION: 60 WK), Doses [Promoter]: 0, 100, 300 PPM IN DIET FOR 40 WK BEGINNING 20 WK POST CARCINOGEN TREATMENT (STUDY DURATION: 60 WK), Doses [Promoter]: 0, 100, 300 PPM IN DIET FOR 40 WK BEGINNING 20 WK POST CARCINOGEN TREATMENT (STUDY DURATION: 60 WK), Route [Carcinogen]: SUBCUTANEOUS, Route [Promoter]: ORAL, Species: RAT, Strain/Sex: F344/MALE) is given as “small intestine: adenocarcinoma”, the outcome (Carcinogen: AZOXYMETHANE [25843-45-2], Doses [Carcinogen]: 2 DOSES OF 15 MG/KG BW AT 1 WK INTERVALS STARTING AT 6 WKS OF AGE (STUDY DURATION: 36 WKS), Doses [Promoter]: 0, 0.001, 0.01, 0.1, 1, 10, 50, 200 PPM IN DIET FOR 34 WKS STARTING AFTER CARCINOGEN, Doses [Promoter]: 0, 0.001, 0.01, 0.1, 1, 10, 50, 200 PPM IN DIET FOR 34 WKS STARTING AFTER CARCINOGEN, Route [Carcinogen]: SUBCUTANEOUS, Route [Promoter]: ORAL (DIET), Species: RAT, Strain/Sex: F344/MALE) is given as “large intestine: adenomas and adenocarcinoma; only doses of 50 and 200 ppm were” and the outcome (Carcinogen: DIETHYLNITROSAMINE, 55-18-5, N-METHYL-N-NITROSOUREA, 684-93-5, N-BUTYL-N-(4-HYDROXYBUTYL)NITROSAMINE, 3817-11-6, 1,, Carcinogen: DIETHYLNITROSAMINE, 55-18-5, N-METHYL-N-NITROSOUREA, 684-93-5, N-BUTYL-N-(4-HYDROXYBUTYL)NITROSAMINE, 3817-11-6, 1,, Doses [Carcinogen]: 100 MG/KG BW DEN ONCE, 20 MG/KG BW MNU 4 TIMES, 0.05% BBN IN DRINKING WATER FOR FIRST 2 WK OF STUDY, 40 MG/KG DMH 4 TIME, Doses [Carcinogen]: 100 MG/KG BW DEN ONCE, 20 MG/KG BW MNU 4 TIMES, 0.05% BBN IN DRINKING WATER FOR FIRST 2 WK OF STUDY, 40 MG/KG DMH 4 TIME, Doses [Promoter]: 0, 60 PPM IN DIET FOR 24 WK BEGINNING AT WK 5 OF STUDY (STUDY DURATION: 29 WK), Route [Carcinogen]: INTRAPERITONEAL, INTRAPERITONEAL, ORAL, SUBCUTANEOUS, ORAL, Route [Carcinogen]: INTRAPERITONEAL, INTRAPERITONEAL, ORAL, SUBCUTANEOUS, ORAL, Route [Promoter]: ORAL, Species: RAT, Strain/Sex: F344/MALE) is given as “large intestine: adenocarcinoma”. For the same compound, the outcome (Carcinogen: DIETHYLNITROSAMINE, 55-18-5, N-METHYL-N-NITROSOUREA, 684-93-5, N-BUTYL-N-(4-HYDROXYBUTYL)NITROSAMINE, 3817-11-6, 1,, Carcinogen: DIETHYLNITROSAMINE, 55-18-5, N-METHYL-N-NITROSOUREA, 684-93-5, N-BUTYL-N-(4-HYDROXYBUTYL)NITROSAMINE, 3817-11-6, 1,, Doses [Carcinogen]: 100 MG/KG BW DEN ONCE, 20 MG/KG BW MNU 4 TIMES, 0.05% BBN IN DRINKING WATER FOR FIRST 2 WK OF STUDY, 40 MG/KG DMH 4 TIME, Doses [Carcinogen]: 100 MG/KG BW DEN ONCE, 20 MG/KG BW MNU 4 TIMES, 0.05% BBN IN DRINKING WATER FOR FIRST 2 WK OF STUDY, 40 MG/KG DMH 4 TIME, Doses [Promoter]: 0, 300 PPM IN DIET FOR 24 WK BEGINNING AT WK 5 OF STUDY (STUDY DURATION: 29 WK), Route [Carcinogen]: INTRAPERITONEAL, INTRAPERITONEAL, ORAL, SUBCUTANEOUS, ORAL, Route [Carcinogen]: INTRAPERITONEAL, INTRAPERITONEAL, ORAL, SUBCUTANEOUS, ORAL, Route [Promoter]: ORAL, Species: RAT, Strain/Sex: F344/MALE) was “small intestine: adenocarcinoma; large intestine: adenocarcinoma”.
For `COC(=O)[C@@H](N)Cc1ccc(O)cc1`, the outcome (Carcinogen: N-METHYL-N'-NITRO-N-NITROSOGUANIDINE, 70-25-7, Doses [Carcinogen]: 25 UG/ML IN DRINKING WATER FOR 25 WK, Doses [Promoter]: 0, 512 MG/KG BW IN 0.9% SALINE 1/2 D FOR 26 WK BEGINNING 1 WK POST CARCINOGEN TREATMENT (STUDY DURATION: 52 WK), Route [Carcinogen]: ORAL, Route [Promoter]: SUBCUTANEOUS, Species: RAT, Strain/Sex: WISTAR/MALE) is given as “stomach: adenocarcinoma” and the outcome (Carcinogen: N-METHYL-N'-NITRO-N-NITROSOGUANIDINE, 70-25-7, Doses [Carcinogen]: 50 UG/ML IN DRINKING WATER FOR 20 WK, Doses [Promoter]: 0, 2 ML/KG IN A VOLUME OF 2 ML/KG 0.9% NACL AT DOSE LEVEL OF 512 MG/KG/BW 1/2 D FOR 32 WK (STUDY DURATION: 32 WK), Route [Carcinogen]: ORAL, Route [Promoter]: SUBCUTANEOUS, Species: RAT, Strain/Sex: WISTAR/MALE) is given as “stomach: adenocarcinoma”.
For `CC(C)(C)NC(=O)[C@H]1CC[C@H]2[C@@H]3CC=C4C=C(C(=O)O)CC[C@]4(C)[C@H]3CC[C@]12C`, the outcome (Carcinogen: 3,2'-DIMETHYL-4-AMINOBIPHENYL, 13394-86-0, Doses [Carcinogen]: 50 MG/KG BW ONCE/2 WK FOR FIRST 20 WK, Doses [Promoter]: 0, 10, 50 MG/KG BW BY GAVAGE 3X/WK FOR 40 WK BEGINNING 20 WK POST CARCINOGEN TREATMENT (STUDY DURATION: 60 WK), Doses [Promoter]: 0, 10, 50 MG/KG BW BY GAVAGE 3X/WK FOR 40 WK BEGINNING 20 WK POST CARCINOGEN TREATMENT (STUDY DURATION: 60 WK), Route [Carcinogen]: SUBCUTANEOUS, Route [Promoter]: ORAL, Species: RAT, Strain/Sex: F344/MALE) is listed as “prostate (ventral): adenocarcinoma”.
For `O=[Se](O)O`, the outcome (Carcinogen: N-METHYL-N'-NITRO-N-NITROSOGUANIDINE [70-25-7], Doses [Carcinogen]: 20 MG/KG BW DAILY FOR 10 D, Doses [Promoter]: 0, 2, 4 MG/L 1 WK BEFORE MNNG (STUDY DURATION: 43 WKS), Doses [Promoter]: 0, 2, 4 MG/L 1 WK BEFORE MNNG (STUDY DURATION: 43 WKS), Route [Carcinogen]: GAVAGE?, Route [Promoter]: DRINKING WATER, Species: RAT, Strain/Sex: WISTAR/MALE) is listed as “stomach: gastric cancer” and the outcome (Doses [Carcinogen]: 20 MG/KG/D FOR 10 D, Doses [Promoter]: 2, 4 MG/L WATER ONE WK BEFORE CARCINOGEN (STUDY DURATION: 43 WK), Route [Carcinogen]: GAVAGE, Route [Promoter]: DRINKING WATER, Species: RAT, Strain/Sex: WISTAR (15/GROUP)) is listed as “stomach: gastric leiomyoma”.
For `ClC1=C(Cl)C2(Cl)C3C(Cl)C(Cl)CC3C1(Cl)C2(Cl)Cl` (stereo unspecified), the outcome (Carcinogen: DIETHYLNITROSAMINE, 55-18-5, Doses [Carcinogen]: 20 PPM IN DRINKING WATER FOR 14 WK, Doses [Promoter]: 0, 25, 50 PPM TECHNICAL GRADE IN DIET BEGINNING 4 WK POST LAST CARCINOGEN DOSE AND CONTINUING FOR 25 WK (STUDY DURATION:, Doses [Promoter]: 0, 25, 50 PPM TECHNICAL GRADE IN DIET BEGINNING 4 WK POST LAST CARCINOGEN DOSE AND CONTINUING FOR 25 WK (STUDY DURATION:, Route [Carcinogen]: ORAL, Route [Promoter]: ORAL, Species: MOUSE, Strain/Sex: B6C3F1/MALE) is given as “liver: adenoma or carcinoma”.
